In brackets after ≈: the same amount, converted by molar mass.
Legend:
[1] = test system: Corynebacterium Ax 15; test: Bactericidal activity (MBC), 60 min contact; type: cell-based, Corynebacterium jeikeium; settings: AX15, 1 h, inoculum completely killed after 60 min incubation, read-out: MBC (minimal bactericidal concentration)
From the text: (§1) The different axilla bacteria are isolated from the human axilla according to techniques known in the art, in particular according to standard microbiological practice. They are taxonomically identified by cell morphology, gram-reaction and biochemical tests included in the Api coryne test kit (BioMerieux, France). Strain Staphylococcus epidermidis Ax25 is identified by fatty acid methyl ester analysis (FAME; German type strain collection DSMZ, Germany) . Escherichia coli DSM 682, Staphylococcus aureus DSM 799, and Corynebacterium xerosis DSM 20170 are obtained from the German-type strain collection. The strains are maintained on Tryptic soy broth plates, this standard medium being supplemented with 5 g per Litre of Polyoxyethylene Sorbitan Monooleate (TweenTM 80). Plates are incubated at 36° C. for a period of 48 hours. The bacteria are then swabbed from the plates and suspended in 4 ml of Muller-Hinton broth supplemented with 100 mg of TweenTM 80 per Litre (MH-Tween) and incubated again at 36° C. for 16 hours. Following incubation the bacterial suspensions are diluted in MH-Tween to obtain a final cell density of 10^7 colony forming units per ml. These diluted suspensions of the different test organisms are distributed to different columns of a microtiter plate, 100 μl per well. The test compounds are dissolved in dimethylsulfoxide (DMSO) at various test concentrations and 2.5 μl of these different DMSO solutions are added to the different wells of the test plates. The plates are covered with plastic films and incubated for 24 h at 36° C. with shaking at 250 rpm. The turbidity developing in the microtiter […] examined after 24 h to determine microbial growth. […] The bacteria are grown, harvested and diluted under the same conditions as described in the example above and added to microtiter plates (100 μl per well), each well containing 2.5 μl of the different DMSO solutions as described above. After 60 min incubation, 0.5 μl of the bacterial culture from each well (corresponding to 5×10^3 cfu in the control treatment) is transferred to a fresh microtiter plate which contained 100 μl per well of fresh medium. The plates are covered with plastic films and incubated for 24 h at 36° C. with shaking at 250 rpm. The turbidity developing in the microtiter plates is then examined after 24 h to determine microbial growth. The minimal concentration of test compounds which completely killed the bacterial inoculum is determined as the minimal bactericidal concentration (MBC).

[2] = test system: Corynebacterium Ax 15; test: Bacteriostatic activity (MIC), microtiter broth turbidity; type: cell-based, Corynebacterium jeikeium; settings: AX15; Corynebacterium Ax 15; growth inhibited by at least 80%, 24 h at 36° C.; read-out: MIC (minimal inhibitory concentration)
From the text: (§2) The bacteriostatic effects of the compounds of the present invention are compared with those of known anti-bacterial agents against human skin bacteria. Typical bacteria (Corynebacterium and Staphylococcus strains) isolated from the human axilla and commercially available strains are used.
(§3) The different axilla bacteria are isolated from the human axilla according to techniques known in the art, in particular according to standard microbiological practice. They are taxonomically identified by cell morphology, gram-reaction and biochemical tests included in the Api coryne test kit (BioMerieux, France). Strain Staphylococcus epidermidis Ax25 is identified by fatty acid methyl ester analysis (FAME; German type strain collection DSMZ, Germany) . […] The strains are maintained on Tryptic soy broth plates, this standard medium being supplemented with 5 g per Litre of Polyoxyethylene Sorbitan Monooleate (Tween™ 80). Plates are incubated at 36° C. for a period of 48 hours. The bacteria are then swabbed from the plates and suspended in 4 ml of Muller-Hinton broth supplemented with 100 mg of Tween™ 80 per Litre (MH-Tween) and incubated again at 36° C. for 16 hours. Following incubation the bacterial suspensions are diluted in MH-Tween to obtain a final cell density of 10^7 colony forming units per ml. These diluted suspensions of the different test organisms are distributed to different columns of a microtiter plate, 100 μl per well. The test compounds are dissolved in dimethylsulfoxide (DMSO) at various test concentrations and 2.5 μl of these different DMSO solutions are added to the different wells of the test plates. The plates are covered with plastic films and incubated for 24 h at 36° C. with shaking at 250 rpm. The turbidity developing in the microtiter platesi then examined after 24 h to determine microbial growth.

[3] = test system: C. xerosis DSM 20170; test: Bactericidal activity (MBC), 60 min contact; type: cell-based; settings: Corynebacterium xerosis, DSM20170, 1 h, inoculum completely killed after 60 min incubation, read-out: MBC (minimal bactericidal concentration)
From the text: as §1

[4] = test system: S. epidermidis Ax 25; test: Bactericidal activity (MBC), 60 min contact; type: cell-based; settings: Staphylococcus epidermidis, AX25, 1 h, inoculum completely killed after 60 min incubation, read-out: MBC (minimal bactericidal concentration)
From the text: as §1

[5] = test system: Corynebacterium Ax 7; test: Bacteriostatic activity (MIC), microtiter broth turbidity; type: cell-based, Corynebacterium group G; settings: AX7; Corynebacterium Ax 7; growth inhibited by at least 80%, 24 h at 36° C.; read-out: MIC (minimal inhibitory concentration)
From the text: as §2, §3

[6] = test system: C. xerosis DSM 20170; test: as above; type: cell-based; settings: Corynebacterium xerosis, DSM20170; C. xerosis DSM 20170; growth inhibited by at least 80%, 24 h at 36° C.; read-out: MIC (minimal inhibitory concentration)
From the text: as §2, §3

[7] = test system: S. epidermidis Ax 25; test: as above; type: cell-based; settings: Staphylococcus epidermidis, AX25; S. epidermidis Ax 25; growth inhibited by at least 80%, 24 h at 36° C.; read-out: MIC (minimal inhibitory concentration)
From the text: as §2, §3

[8] = test system: Escherichia coli DSM 682; test: as above; type: cell-based; settings: DSM682; Escherichia coli DSM 682; growth inhibited by at least 80%, 24 h at 36° C.; read-out: MIC (minimal inhibitory concentration)
From the text: as §2, §3

[9] = test system: Staphylococcus aureus DSM 799; test: as above; type: cell-based; settings: DSM799; Staphylococcus aureus DSM 799; growth inhibited by at least 80%, 24 h at 36° C.; read-out: MIC (minimal inhibitory concentration)
From the text: as §2, §3

[10] = test system: Corynebacterium Ax 7; test: Bactericidal activity (MBC), 60 min contact; type: cell-based, Corynebacterium group G; settings: AX7, 1 h, inoculum completely killed after 60 min incubation, read-out: MBC (minimal bactericidal concentration)
From the text: as §1

For CCCCCCC(CCCC)COCC(=O)O (stereo not shown) [compound 5, (2-Butyl-octyloxy)-acetic acid], the MBC [1] was > 2500 µg/mL, the MIC [2] was 310 µg/mL (≈ 1270 µM) and the MBC [3] was > 2500 µg/mL. The MBC [4] was > 2000 µg/mL, the MIC [5] was 160 µg/mL (≈ 655 µM) and the MIC [6] was 80 µg/mL (≈ 327 µM). The MIC [7] was 160 µg/mL (≈ 655 µM), the MIC [8] was > 2500 µg/mL and the MIC [9] was 160 µg/mL (≈ 655 µM). For the same compound, the MBC [10] was 1250 µg/mL (≈ 5120 µM).
In the case of CCCCCCCCC(CCCCCC)COCC(=O)O (stereo not shown) [compound 6, (2-Hexyl-decyloxy)-acetic acid], the MBC [1] is reported as 40 µg/mL (≈ 133 µM), the MIC [2] is reported as 5 µg/mL (≈ 16.6 µM) and the MBC [3] is reported as 40 µg/mL (≈ 133 µM). For the same compound, the MBC [4] was 20 µg/mL (≈ 66.6 µM), the MIC [5] was 5 µg/mL (≈ 16.6 µM) and the MIC [6] was 4 µg/mL (≈ 13.3 µM). The MIC [7] was 5 µg/mL (≈ 16.6 µM), the MIC [8] was > 2500 µg/mL and the MIC [9] was 5 µg/mL (≈ 16.6 µM). It also gave an MBC [10] of 20 µg/mL (≈ 66.6 µM).
For CCCCC(CC)C(=O)OCC(=O)O (stereo not shown) [compound 7, 2-Ethyl-hexanoic acid carboxymethyl ester], the MBC [1] was > 2500 µg/mL, the MIC [2] was 1250 µg/mL (≈ 6180 µM) and the MBC [3] was > 2500 µg/mL. For the same compound, the MBC [4] was > 2500 µg/mL, the MIC [5] was 1250 µg/mL (≈ 6180 µM) and the MIC [6] was 1250 µg/mL (≈ 6180 µM). The MIC [7] was 1250 µg/mL (≈ 6180 µM), the MIC [8] was 2500 µg/mL (≈ 12400 µM) and the MIC [9] was 1250 µg/mL (≈ 6180 µM). The MBC [10] was > 2500 µg/mL.
For CCCCCCC(CCCC)C(=O)OCC(=O)O (stereo not shown) [compound 8, 2-Butyl-octanoic acid carboxymethyl ester], the MBC [1] was 2500 µg/mL (≈ 9680 µM), the MIC [2] was 80 µg/mL (≈ 310 µM) and the MBC [3] was 2500 µg/mL (≈ 9680 µM). For the same compound, the MBC [4] was 1250 µg/mL (≈ 4840 µM), the MIC [5] was 160 µg/mL (≈ 619 µM) and the MIC [6] was 80 µg/mL (≈ 310 µM). For the same compound, the MIC [7] was 1250 µg/mL (≈ 4840 µM), the MIC [8] was 2500 µg/mL (≈ 9680 µM) and the MIC [9] was 80 µg/mL (≈ 310 µM). For the same compound, the MBC [10] was 1250 µg/mL (≈ 4840 µM).
With CCCCCCCCC(CCCCCC)C(=O)OCC(=O)O (stereo not shown) [compound 9, 2-Hexyl-decanoic acid carboxymethyl ester] the MBC [1] was 80 µg/mL (≈ 254 µM), the MIC [2] was 5 µg/mL (≈ 15.9 µM) and the MBC [3] was 80 µg/mL (≈ 254 µM). The MBC [4] was 40 µg/mL (≈ 127 µM), the MIC [5] was 5 µg/mL (≈ 15.9 µM) and the MIC [6] was 7 µg/mL (≈ 22.3 µM). For the same compound, the MIC [7] was 10 µg/mL (≈ 31.8 µM), the MIC [8] was > 2500 µg/mL and the MIC [9] was 5 µg/mL (≈ 15.9 µM). It also gave an MBC [10] of 40 µg/mL (≈ 127 µM).
CCCCCCC(CCCC)C(=O)NCC(=O)O (stereo not shown) [compound 10, (2-Butyl-octanoylamino)-acetic acid] was tested, and the MBC [1] was > 2500 µg/mL, the MIC [2] was 1250 µg/mL (≈ 4860 µM) and the MBC [3] was 2500 µg/mL (≈ 9710 µM). For the same compound, the MBC [4] was 2500 µg/mL (≈ 9710 µM), the MIC [5] was 1250 µg/mL (≈ 4860 µM) and the MIC [6] was 630 µg/mL (≈ 2450 µM). The MIC [7] was 1250 µg/mL (≈ 4860 µM), the MIC [8] was 1250 µg/mL (≈ 4860 µM) and the MIC [9] was 1250 µg/mL (≈ 4860 µM). The MBC [10] was 1250 µg/mL (≈ 4860 µM).
For CCCCCCCCC(CCCCCC)C(=O)NCC(=O)O (stereo not shown) [compound 11, (2-Hexyl-decanoylamino)-acetic acid], the MBC [1] was 313 µg/mL (≈ 998 µM), the MIC [2] was 78 µg/mL (≈ 249 µM) and the MBC [3] was 313 µg/mL (≈ 998 µM). For the same compound, the MBC [4] was ≥ 5000 µg/mL, the MIC [5] was ≤ 19 µg/mL and the MIC [6] was ≤ 19 µg/mL. The MIC [7] was 39 µg/mL (≈ 124 µM), the MIC [8] was ≥ 5000 µg/mL and the MIC [9] was 55 µg/mL (≈ 175 µM). It also gave an MBC [10] of 156 µg/mL (≈ 498 µM).

Reference: patent US20070276045A1, “Anti-Bacterial Compounds” (priority 2004, published 2007)
